Target: porcine pancreatic elastase (PPE) (Sus scrofa, UniProt P00772)
Experiment: PPE enzyme assay
Assay type: biochemical

porcine pancreatic elastase (PPE), sequence (P00772 27-266): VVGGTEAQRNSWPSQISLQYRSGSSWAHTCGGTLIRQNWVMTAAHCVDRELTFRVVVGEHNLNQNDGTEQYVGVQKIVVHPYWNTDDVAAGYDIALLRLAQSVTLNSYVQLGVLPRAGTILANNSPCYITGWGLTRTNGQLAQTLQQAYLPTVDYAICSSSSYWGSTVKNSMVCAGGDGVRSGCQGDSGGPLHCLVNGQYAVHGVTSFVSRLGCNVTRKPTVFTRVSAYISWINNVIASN

IC50: 3.08 µM
SMILES: CC(C)(C)C(=O)Oc1ccc(S(=O)(=O)Nc2ccccc2C(=O)NCC(=O)O)cc1 [sivelestat]

Source: PMC4734386 (The Journal of organic chemistry, 2015)
